From ChEMBL document CHEMBL1158706, “Hemiterpene glucosides with anti-platelet aggregation activities from Ilex pubescens” (2005)

Organism: Rattus norvegicus
Assay: Antiplatelet activity in Sprague-Dawley rat plasma assessed as shear induced platelet aggregation at 10 uM
Format: functional

Row | Structure (SMILES) | Activity [%]
1 | CC(=O)Oc1ccccc1C(=O)O [ASPIRIN] | 44.7
2 | C=C(COC(=O)/C=C/c1ccc(O)c(O)c1)C(O)CO[C@@H]1O[C@H](CO)[C@@H](O)[C@H](O)[C@H]1O (stereo partly drawn) [PUBESCENOSIDE A] | 36.55
3 | C=C(CO)C(CO[C@@H]1O[C@H](CO)[C@@H](O)[C@H](O)[C@H]1O)OC(=O)/C=C/c1ccc(O)c(O)c1 (stereo partly drawn) [PUBESCENOSIDE B] | 27.3
